Measurements taken from patent publication US7390797B2, “Fused indazole compounds” (Eisai Co., Ltd., priority 2002, dated 2008).
pIC50: −log10 of the molar value.

Molecular target: T1, Human JNK 3 (Homo sapiens, UniProt P53779)
T1 construct: made in house; host or cells: Escherichia coli
Assay: Determination of JNK 3 Inhibition
Assay type: biochemical
Details: GST-JNK 3 enzyme, GST-c-Jun (1-169) substrate, [γ-33P]ATP, 3.33 μM ATP, 30 minutes, SPA beads
Description: Test Example 1 Determination of JNK 3 Inhibition
Human JNK 3 was expressed as a fusion protein (GST-JNK 3) with glutathione S-transferase (GST) in Escherichia coli and was purified using glutathione Sepharose 4B beads. The amino acid sequence 1-169 of c-Jun was […] as a fusion protein (GST-c-Jun) with GST in Escherichia coli, was purified using glutathione Sepharose 4B beads and was used as a substrate. A test compound was diluted with 100% dimethyl sulfoxide into 10 mM and was then further diluted with 10% aqueous dimethyl sulfoxide solution to yield a dilution series. To each well of 96-well OPTI plate (available from Packard) were placed 20 μl of the diluted compound, 30 μl of a substrate solution (1.2 μg of GST-c-Jun, […], 0.2 μCi of [γ-^33P]ATP, 25 mM of HEPES pH=7.5, 10 mM of magnesium acetate, and 3.33 μM of ATP), and 50 μl of an enzyme solution (0.04 μg of GST-JNK 3, 25 mM of HEPES pH=7.5, and 10 mM magnesium acetate) up to 100 μl, and the mixture was allowed to react for 30 minutes. After terminating the reaction by adding 100 μl of a reaction terminator (80 mM ATP, 5 mg/ml glutathione SPA beads (available from Amersham Pharmacia Biotech)), the reaction mixture was shaken for 30 minutes. The mixture was centrifuged at room temperature at 1000×g for 5 minutes, and the emission intensity thereof was determined on a TopCount™ illuminator (available from Packard). The activity is expressed by the 50% inhibitory concentration on the enzymatic activity of JNK, i.e., IC50 (nM).

T1 sequence (P53779 whole entry): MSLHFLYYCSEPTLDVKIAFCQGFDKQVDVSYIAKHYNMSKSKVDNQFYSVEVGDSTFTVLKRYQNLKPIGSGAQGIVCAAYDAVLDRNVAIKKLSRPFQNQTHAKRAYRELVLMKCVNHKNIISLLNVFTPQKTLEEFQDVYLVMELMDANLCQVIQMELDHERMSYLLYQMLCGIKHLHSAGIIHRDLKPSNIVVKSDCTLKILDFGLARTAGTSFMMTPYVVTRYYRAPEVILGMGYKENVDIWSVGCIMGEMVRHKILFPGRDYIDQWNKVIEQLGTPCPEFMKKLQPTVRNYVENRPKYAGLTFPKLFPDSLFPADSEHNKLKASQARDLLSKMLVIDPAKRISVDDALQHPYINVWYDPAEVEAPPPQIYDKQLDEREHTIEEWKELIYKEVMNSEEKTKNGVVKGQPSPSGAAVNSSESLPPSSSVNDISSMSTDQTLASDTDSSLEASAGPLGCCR

## OCc1cccc2c1CCc1cccc3[nH]nc-2c13 [Example 1, 6,7-Dihydro-2H-benzo[6,7]cyclohepta[cd]indazol-8-ylmethanol]
  pIC50: ≥ 6.52

## OCc1cccc2c1C=Cc1cccc3[nH]nc-2c13 [Example 6, 2H-Benzo[6,7]cyclohepta[cd]indazol-8-ylmethanol]
  pIC50: ≥ 6.52

## Nc1cccc2c1CCc1cccc3[nH]nc-2c13 [Example 8, 6,7-Dihydro-2H-benzo[6,7]cyclohepta[cd]indazole-8-amine]
  pIC50: ≥ 6.52

## C1=Cc2cccc3[nH]nc(c23)-c2ccccc21 [Example 9, 2H-Benzo[6,7]cyclohepta[cd]indazole]
  pIC50: ≥ 6.52

## O=C(NCc1ccco1)c1cccc2c1C=Cc1cccc3[nH]nc-2c13 [Example 20, N8-(2-Furylmethyl)-2H-benzo[6,7]cyclohepta[cd]indazole-8-carboxamide]
  pIC50: ≥ 6.52

## O=C(NC1CC1)c1cccc2c1C=Cc1cccc3[nH]nc-2c13 [Example 21, N8-Cyclopropyl-2H-benzo[6,7]cyclohepta[cd]indazole-8-carboxamide]
  pIC50: ≥ 6.52

## Cc1ccc2[nH]nc3c2c1NC(=O)c1ccccc1-3 [Example 25, 5-Methyl-6,7-dihydro-2H-benzo[5,6]azepino[4,3,2-cd]indazol-7-one]
  pIC50: ≥ 6.52

## Cc1cc(Br)c2[nH]nc3c2c1NC(=O)c1ccccc1-3 [Example 26, 3-Bromo-5-methyl-6,7-dihydro-2H-benzo[5,6]azepino[4,3,2-cd]indazol-7-one]
  pIC50: ≥ 6.52
